Series [1] in a line: Drug concentration in human tears at 0.6% administered topically as single dose measured after 10 mins. It is filed as ADME. To be noted: topical or ocular, read-out: Drug uptake.
Series [2] can be described thus: Drug concentration in human tears at 0.6% administered topically as single dose measured after 24 hrs. In kind it is ADME. To be noted: topical or ocular, read-out: Drug uptake.
The next series has as its system Clostridium perfringens. Briefly: Antibacterial activity against Clostridium perfringens by CLSI M11-A7 method. In kind it is functional.
The test system of series [3] is Fusobacterium sp. In words: Antibacterial activity against Fusobacterium sp. by CLSI M11-A7 method. In kind it is functional.
For a further series, the system named is Cutibacterium acnes. Briefly: Antibacterial activity against Propionibacterium acnes by CLSI M11-A7 method. It is filed as functional.
For the next series, the system named is Bacteroides fragilis. Briefly: Antibacterial activity against Bacteroides fragilis assessed as percent susceptible isolates by CLSI M11-A7 method. In kind it is functional.
Series [4] has as its system Fusobacterium sp. Briefly: Antibacterial activity against Fusobacterium sp. assessed as percent susceptible isolates by CLSI M11-A7 method. In kind it is functional.
A further series concerns Peptostreptococcus sp. Briefly: Antibacterial activity against Peptostreptococcus sp. assessed as percent susceptible isolates by CLSI M11-A7 method. It is filed as functional.
The test system of another series is Prevotella sp. In words: Antibacterial activity against Prevotella sp. assessed as percent susceptible isolates by CLSI M11-A7 method. It is filed as functional.
The subject of a further series is Streptococcus agalactiae. In words: Antibacterial activity against Streptococcus agalactiae assessed as percent susceptible isolates by CLSI M100-S18 method. In kind it is functional.
The nature of series [5]: Antibacterial activity against Lancefield Streptococcus sp. 'group C' assessed as percent susceptible isolates by CLSI M100-S18 method. In kind it is functional.
In the next series the test system is Streptococcus sp. In words: Antibacterial activity against Lancefield Streptococcus sp. group F assessed as percent susceptible isolates by CLSI M100-S18 method. It is filed as functional.
The nature of series [6]: Antibacterial activity against Lancefield Streptococcus sp. 'group G' assessed as percent susceptible isolates by CLSI M100-S18 method. It is filed as functional.
The next series deals with Enterococcus faecium. In words: Antibacterial activity against vancomycin- resistant Enterococcus faecium assessed as percent susceptible isolates by CLSI M100-S18 method. It is filed as functional.
A further series has as its system Citrobacter koseri. Briefly: Antibacterial activity against Citrobacter koseri assessed as percent susceptible isolates by CLSI M7-A7 method. It is filed as functional.
Another series has as its system Klebsiella oxytoca. In words: Antibacterial activity against Klebsiella oxytoca assessed as percent susceptible isolates by CLSI M7-A7 method. In kind it is functional.
In a further series the test system is Morganella morganii. In words: Antibacterial activity against Morganella morganii assessed as percent susceptible isolates by CLSI M7-A7 method. In kind it is functional.

Converted amounts (≈) assume the structure as drawn. The source made the active and inactive calls. The rule behind the calls is not given here.

Broadly, the MIC50 is the lowest concentration that inhibits either 50% of growth or 50% of the strains tested, depending on the study. Read a low MIC50 as greater potency. As usually defined, the MIC90 is the lowest concentration that inhibits either 90% of growth or 90% of the strains tested, depending on the study.

Regarding `N[C@@H]1CCCCN(c2c(F)cc3c(=O)c(C(=O)O)cn(C4CC4)c3c2Cl)C1` [BESIFLOXACIN], the concentration at 10 min in series [1] turned out to be 610 µg/mL. Further, the concentration at 24 h in series [2] came out at 1.6 µg/mL. The MIC50 in the series with Clostridium perfringens, in the series on Fusobacterium sp. [3] and with Cutibacterium acnes was 0.25 µg/mL (≈ 0.635 µM) in each case. The MIC90 is 0.25 µg/mL (≈ 0.635 µM) against Clostridium perfringens, 1 µg/mL (≈ 2.54 µM) in the series with Fusobacterium sp. [3] and 0.25 µg/mL (≈ 0.635 µM) against Cutibacterium acnes. Besides, the outcome with Bacteroides fragilis, in the series with Fusobacterium sp. [4], in the series on Peptostreptococcus sp. and with Prevotella sp. was inactive.

Regarding `NC[C@H]1O[C@H](O[C@H]2[C@H](O)[C@@H](O[C@H]3O[C@H](CO)[C@@H](O)[C@H](N)[C@H]3O)[C@H](N)C[C@@H]2N)[C@H](N)C[C@@H]1O` [TOBRAMYCIN], the Activity amounted to 73% in the series with Streptococcus agalactiae, 74% in series [5], 74% in the series on Streptococcus sp. and 74% in [6].

Consider `C[C@H]1COc2c(N3CCN(C)CC3)c(F)cc3c(=O)c(C(=O)O)cn1c23.C[C@H]1COc2c(N3CCN(C)CC3)c(F)cc3c(=O)c(C(=O)O)cn1c23.O` [LEVOFLOXACIN], for which the Activity with Enterococcus faecium was 30.9%; in the series on Citrobacter koseri, 99%; in the series with Klebsiella oxytoca, 90%; in the series on Morganella morganii, 76.5%.
